25 compounds from ChEMBL document CHEMBL5032527, “N-(4-acetamidophenyl)-5-acetylfuran-2-carboxamide as a novel orally available diuretic that targets urea transporters with improved PD and PK properties” (Eur J Med Chem, 2021) can be followed below.

The target in series [1] is T1, Urea transporter 1 (Rattus norvegicus, UniProt P97689).
T1 sequence (P97689 whole entry): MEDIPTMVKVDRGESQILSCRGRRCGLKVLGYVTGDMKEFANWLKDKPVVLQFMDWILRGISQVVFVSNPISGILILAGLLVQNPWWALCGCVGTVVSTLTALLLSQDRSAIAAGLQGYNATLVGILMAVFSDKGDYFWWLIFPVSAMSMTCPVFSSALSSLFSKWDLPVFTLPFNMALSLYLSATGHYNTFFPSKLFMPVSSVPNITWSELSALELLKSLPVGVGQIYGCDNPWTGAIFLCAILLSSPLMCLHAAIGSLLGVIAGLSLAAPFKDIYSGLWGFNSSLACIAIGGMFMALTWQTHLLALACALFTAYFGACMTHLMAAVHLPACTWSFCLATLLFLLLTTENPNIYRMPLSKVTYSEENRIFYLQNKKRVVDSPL
Briefly: Inhibition of rat UT-B expressed in MDCK cells. It counts as cell-based.

Series [2] addresses T2, Urea transporter 1 (Mus musculus, UniProt Q8VHL0).
T2 sequence (Q8VHL0 whole entry): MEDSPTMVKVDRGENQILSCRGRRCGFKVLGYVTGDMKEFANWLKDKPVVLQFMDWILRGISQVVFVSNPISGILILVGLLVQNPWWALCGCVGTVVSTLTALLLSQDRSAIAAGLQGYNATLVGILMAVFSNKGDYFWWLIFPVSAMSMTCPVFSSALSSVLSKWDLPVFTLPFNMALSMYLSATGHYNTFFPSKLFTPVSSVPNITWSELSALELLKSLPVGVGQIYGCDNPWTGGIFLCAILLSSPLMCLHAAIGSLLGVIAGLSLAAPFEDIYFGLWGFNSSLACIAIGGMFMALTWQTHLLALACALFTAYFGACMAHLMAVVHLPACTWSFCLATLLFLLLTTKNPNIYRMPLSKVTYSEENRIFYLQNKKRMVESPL
Put plainly: Inhibition of mouse UT-B expressed in MDCK cells. In kind it is cell-based.

Series [3] concerns MDCK. Put plainly: Cytotoxicity against MDCK cells assessed as reduction in cell viability at 400 uM measured by CCK-8 assay. In kind it is cell-based, Canis lupus familiaris. Particulars: dog. For orientation: Tetrazolium assays rely on reduction of a dye to a coloured formazan, in cell work by metabolically active cells.
Series [4] deals with T3, Urea transporter 1 (Rattus norvegicus) (UniProt P97689).
T3 sequence (whole entry): T1 sequence (P97689 whole entry)
Put plainly: Inhibition of rat UT-B expressed in MDCK cells assessed as inhibition of urea transport at 8 uM. It counts as cell-based.

In series [5] the test system is MDCK. Briefly: Inhibition of rat UT-A1 expressed in MDCK cells assessed as inhibition of urea transport at 8 uM. In kind it is cell-based.
The nature of series [6]: Metabolic stability in Sprague-Dawley rat plasma assessed as percentage of compound remaining after 240 mins by LC-MS/MS analysis. To be noted: read-out: Stability. In kind it is ADME, cell-free.
Series [7] in a line: Metabolic stability in Sprague-Dawley rat liver microsomes assessed as percentage of compound remaining after 240 mins by LC-MS/MS analysis. In kind it is ADME, Microsome. Particulars: read-out: Stability.
In series [8] the test system is Rattus norvegicus. Put plainly: Diuretic activity in Sprague-Dawley rat assessed as increase in urine volume at 50 mg/kg, IG after 2 hrs. It counts as functional, organism-based.
For series [9], the system named is Rattus norvegicus. Briefly: Diuretic activity in Sprague-Dawley rat assessed as increase in urine volume at 100 mg/kg, IG after 2 hrs. It counts as functional, organism-based.
Series [10] is filed under the species Rattus norvegicus. Briefly: Diuretic activity in IG treated Sprague-Dawley rat assessed as reduction in urine osmolality. In kind it is functional.
For series [11], the species on record is Mus musculus. Put plainly: Diuretic activity in mouse assessed as increase in urine volume. In kind it is functional, organism-based.
The species named for series [12] is Mus musculus. Briefly: Diuretic activity in mouse assessed as reduction in urine osmolality. In kind it is functional, organism-based.
Series [13] concerns Mus musculus. Briefly: Diuretic activity in mouse assessed as increase in urine output at 100 mg/kg, IG measured after 7 days. In kind it is functional, organism-based. To be noted: time 7.0 day.
Series [14] can be described thus: Cmax in Sprague-Dawley rat at 100 mg/kg, po by LC-MS/MS analysis. It counts as ADME, organism-based. The arrangement: route oral, dose 100 mg/kg. Particulars: in vivo.
The nature of series [15]: AUC (0 to t) in Sprague-Dawley rat at 100 mg/kg, po by LC-MS/MS analysis. In kind it is ADME, organism-based. The arrangement: dose 100 mg/kg. To be noted: in vivo.
A short description of series [16]: MRT in Sprague-Dawley rat at 100 mg/kg, po by LC-MS/MS analysis. It counts as ADME, organism-based. Particulars: in vivo.
Series [17] in a line: Bioavailability in Sprague-Dawley rat at 100 mg/kg, po by LC-MS/MS analysis. It counts as ADME, organism-based. Particulars: in vivo.
The target in series [18] is Voltage-gated inwardly rectifying potassium channel KCNH2 (Homo sapiens, UniProt Q12809). Briefly: Inhibition of hERG. Particulars: read-out: INH. A general note: hERG is a cardiac potassium channel; its block is linked to QT prolongation.
Chain of Voltage-gated inwardly rectifying potassium channel KCNH2 (Q12809 whole entry): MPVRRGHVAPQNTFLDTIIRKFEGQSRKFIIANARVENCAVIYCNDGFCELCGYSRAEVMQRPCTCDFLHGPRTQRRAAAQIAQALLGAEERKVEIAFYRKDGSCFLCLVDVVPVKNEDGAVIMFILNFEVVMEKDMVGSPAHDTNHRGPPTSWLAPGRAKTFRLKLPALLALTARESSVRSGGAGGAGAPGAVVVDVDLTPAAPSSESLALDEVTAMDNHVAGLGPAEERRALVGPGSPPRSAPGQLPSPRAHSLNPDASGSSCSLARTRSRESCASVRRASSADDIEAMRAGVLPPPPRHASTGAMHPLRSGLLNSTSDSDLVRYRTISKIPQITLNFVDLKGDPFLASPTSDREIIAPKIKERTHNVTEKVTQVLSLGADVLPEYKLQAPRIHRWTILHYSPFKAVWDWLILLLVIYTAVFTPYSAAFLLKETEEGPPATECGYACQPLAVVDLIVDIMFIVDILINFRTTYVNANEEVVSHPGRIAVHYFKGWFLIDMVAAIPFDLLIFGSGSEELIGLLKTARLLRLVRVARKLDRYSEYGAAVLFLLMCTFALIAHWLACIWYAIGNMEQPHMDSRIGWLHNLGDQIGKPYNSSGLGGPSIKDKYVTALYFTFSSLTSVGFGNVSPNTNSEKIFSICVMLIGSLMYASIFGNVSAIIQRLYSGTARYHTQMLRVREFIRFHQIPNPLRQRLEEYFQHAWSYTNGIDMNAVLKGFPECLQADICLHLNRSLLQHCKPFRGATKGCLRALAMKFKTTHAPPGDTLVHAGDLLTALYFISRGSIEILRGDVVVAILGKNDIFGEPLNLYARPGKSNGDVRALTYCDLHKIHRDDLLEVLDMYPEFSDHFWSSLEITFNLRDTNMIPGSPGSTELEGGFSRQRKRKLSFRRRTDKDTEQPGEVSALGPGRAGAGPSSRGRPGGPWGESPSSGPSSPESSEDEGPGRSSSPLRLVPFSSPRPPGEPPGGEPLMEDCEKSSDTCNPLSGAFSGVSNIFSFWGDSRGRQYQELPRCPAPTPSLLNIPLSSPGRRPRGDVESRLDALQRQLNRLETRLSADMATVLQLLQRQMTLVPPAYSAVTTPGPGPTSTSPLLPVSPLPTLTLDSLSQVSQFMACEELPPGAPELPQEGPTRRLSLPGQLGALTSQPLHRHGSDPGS
Series [19] relates to Rattus norvegicus. Put plainly: Diuretic activity in Sprague-Dawley rat assessed as increase in urine volume at 100 mg/kg, IG. In kind it is functional, organism-based. Particulars: TDE = time-dependent effect.
A short description of series [20]: in vivo. Particulars: Sprague-Dawley, rat, po, 100 mg/kg.
The subject of series [21] is MDCK. Put plainly: Cytotoxicity against MDCK cells assessed as reduction in cell viability at 80 uM measured by CCK-8 assay. It counts as cell-based, Canis lupus familiaris. To be noted: dog.
In series [22] the test system is Rattus norvegicus. Briefly: Diuretic activity in Sprague-Dawley rat assessed as increase in urine volume at 100 mg/kg, IG after 4 hrs. In kind it is functional, organism-based.
A short description of series [23]: Half life in Sprague-Dawley rat at 100 mg/kg, po by LC-MS/MS analysis. Particulars: in vivo. In kind it is ADME, organism-based.
The nature of series [24]: AUC (0 to infinity) in Sprague-Dawley rat at 100 mg/kg, po by LC-MS/MS analysis. It counts as ADME, organism-based. More on the design: route oral, time infinity, dose 100 mg/kg. To be noted: in vivo.

pIC50: −log10 of the molar value. The source made the active and inactive calls. The rule behind the calls is not given here. Bounds are passed on as bounds.

Turning to `O=C(Nc1ccc2ccc(=O)[nH]c2c1)c1ccc([N+](=O)[O-])o1`, the pIC50 was 6.22 in [1] and 5.82 in [2].

`O=C(Nc1cccc2[nH]c(=O)ccc12)c1ccc([N+](=O)[O-])o1`: the pIC50 in series [1] and in series [2] was less than 5.00 throughout.

As for `O=C(Nc1ccc(NS(=O)(=O)c2ccccc2Cl)cc1)c1ccc([N+](=O)[O-])o1`, the pIC50 in series [1] is 6.28; in series [2] it was 5.98.

For `O=C(Nc1ccc(NS(=O)(=O)c2ccccc2C(F)(F)F)cc1)c1ccc([N+](=O)[O-])o1`, the pIC50 in [1] is 6.06; in series [2] it was 5.83.

Consider `CCS(=O)(=O)Nc1ccc(NC(=O)c2ccc([N+](=O)[O-])o2)cc1`, for which the pIC50 in [1] is 6.55; in [2], 6.08.

As for `CC(=O)Nc1ccc(NC(=O)c2ccc(F)o2)cc1`, the pIC50 in series [1] is 5.19; in series [2], less than 5.00.

Take `CC(=O)Nc1ccc(NC(=O)c2ccc(C(F)F)o2)cc1`: the pIC50 in series [1] and in [2] was less than 5.00 each time.

As to `O=C(Nc1ccc(NS(=O)(=O)c2ccccc2)cc1)c1ccc([N+](=O)[O-])o1`, the pIC50 was 6.96 in series [1] and 6.62 in [2].

For `O=C(Nc1ccc(NS(=O)(=O)c2ccc(F)cc2)cc1)c1ccc([N+](=O)[O-])o1`, the results for the pIC50 in series [1] and in series [2] were 6.19 and 5.88, respectively.

With `CC(=O)Nc1ccc(NC(=O)c2ccc(C(=O)c3ccccc3)o2)cc1`, the figures for the pIC50 in [1] and in series [2] were less than 5.00 and 5.01, respectively.

Turning to `O=C(Nc1cccc2ccc(=O)[nH]c12)c1ccc([N+](=O)[O-])o1`, the pIC50 in series [1] was 5.22; in series [2] it was less than 5.00.

For the compound `O=C(Nc1ccc(NS(=O)(=O)c2ccc(C(F)(F)F)cc2)cc1)c1ccc([N+](=O)[O-])o1`, the pIC50 in [1] is 5.56; in series [2], 5.46.

For `O=C(Nc1ccc(NS(=O)(=O)c2ccccc2F)cc1)c1ccc([N+](=O)[O-])o1`, the pIC50 in series [1] is 5.98; in series [2] it was 5.77.

On to `O=C1CCc2cc(NC(=O)c3ccc([N+](=O)[O-])o3)ccc2N1`, for which the values for the pIC50 in [1] and in [2] were 5.97 and 5.66, respectively.

As for `CC(=O)Nc1ccc(NC(=O)c2ccc(C(C)=O)o2)cc1`, the Activity entry was “Toxic” in series [3] and “Tde” in [19]. Also, the results for the inhibition in series [4] and in series [5] were 89.6% and 84.4%, respectively. For the same compound, the remaining at 4 h in series [6] and in [7] was 20% in each case. Further, the outcome in series [8], in series [9], in [11], in [12] and in series [13] was Active. Further, the “fold change (FC)” value in [10] was found to be 10. Moreover, the highest level in series [14] (Cmax) was 1240 ng/mL. Besides, in [15], the AUC(0-t) came to 6840 ng·h/mL. Also, the MRT in [16] turned out to be 5.45 h. Also, the bioavailability in series [17] was 15.8%. In [18], the pIC50 is less than 4.00. Further, in [20], the Tmax was 0.21 h.

Turning to `CC(=O)c1ccc(C(=O)Nc2ccc(NS(=O)(=O)c3ccccc3)cc2)o1`, the pIC50 was 6.82 in [1] and 6.80 in [2]. For the same compound, the Activity entry in [21] is “Toxic”.

With `O=C(Nc1ccc(NS(=O)(=O)c2cccc(Br)c2)cc1)c1ccc([N+](=O)[O-])o1`, the pIC50 in [1] is 6.09; in series [2], 5.80.

For the compound `O=C(Nc1ccc(NS(=O)(=O)c2cccc(C(F)(F)F)c2)cc1)c1ccc([N+](=O)[O-])o1`, the pIC50 in series [1] was 5.78; in [2] it was 5.65.

`O=C(Nc1ccc(NS(=O)(=O)c2cccc(F)c2)cc1)c1ccc([N+](=O)[O-])o1`: the pIC50 in [1] was 6.18; in [2], 5.88.

On to `CC(=O)Nc1ccc(NC(=O)c2ccc(C(=O)C(C)(C)C)o2)cc1`, for which the pIC50 in series [1] and in [2] was less than 5.00 each time.

As to `O=C(Nc1ccc(NS(=O)(=O)c2ccc(Cl)cc2)cc1)c1ccc([N+](=O)[O-])o1`, the figures for the pIC50 in series [1] and in series [2] were 6.37 and 6.16, respectively.

In the case of `O=C(Nc1ccc2[nH]c(=O)ccc2c1)c1ccc([N+](=O)[O-])o1`, the results for the pIC50 in [1] and in [2] were 5.91 and 5.63, respectively.

Take `O=C(Nc1ccc(NS(=O)(=O)c2cccc(Cl)c2)cc1)c1ccc([N+](=O)[O-])o1`: the pIC50 in series [1] was 6.12; in [2], 6.00.

`CC(=O)Nc1ccc(NC(=O)c2ccc([N+](=O)[O-])o2)cc1` showed a pIC50 in series [1] of 5.85. In addition, in series [5], the inhibition was found to be 102%. Moreover, the remaining at 4 h in series [6] and in series [7] was 20% each time. For the same compound, the outcome in [22] was inactive. The same compound showed a t1/2 in [23] of 0.93 h. This compound displayed a Cmax in series [14] of 74.3 ng/mL. The same compound yielded an AUC(0-t) in [15] of 78.1 ng·h/mL. This compound also came in with an AUC(0-inf) in series [24] of 82.5 ng·h/mL. In addition, the MRT in series [16] was determined as 1.51 h. In addition, the bioavailability in [17] is 4.38%.

For the compound `O=C1Cc2cc(NC(=O)c3ccc([N+](=O)[O-])o3)ccc2N1`, the pIC50 in [1] was 5.50; in series [2] it was 5.30.

As a reminder, the inhibition is the drop in the measured response relative to a control, in per cent. The Cmax is the peak of the concentration-time curve. For orientation: AUC(0-t) means exposure summed from dosing to a finite time, without extrapolation to infinity. The term MRT denotes a mean duration of stay, worked out from the concentration-time curve. One may read the bioavailability as dose-corrected exposure relative to a reference, in per cent. A higher bioavailability goes with much systemic uptake. As usually defined, the Tmax is the time at which the peak concentration occurs. The AUC(0-inf) is total exposure, with the tail of the curve extrapolated. A low value points to low exposure.
